Test systems include EKVX NSCLC; SNB-75 CNS; MALME-3M melanoma; A549 NSCLC; HT29 colon; ACHN renal; LOX IMVI melanoma; HOP-92 NSCLC; COLO 205 colon; SR leukemia.
Common to all, as to assay: inhibition of tumour cell growth, NCI panel, 48 h

Results on ten compounds are retold here after PubChem BioAssay (NCI).

Values joined by “and” are separate entries in the source; they are usually repeats but may differ in a detail not shown here. Equal values may be shown once.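 In this assay, cells in 96-well plates receive the compound at five concentrations for 48 hours. Endpoints are linearly interpolated between the surrounding concentrations. GI50 marks 50% less growth. Definition used: TGI = concentration required for complete inhibition of growth.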

Regarding `Cc1c(CN2CCC(Nc3ncnc4sc(CC(F)(F)F)cc34)CC2)ccc2c1cc(C#N)n2Cc1cn[nH]c1`, the GI50 with EKVX NSCLC is 1.92 µM and 3.08 µM; in the assay with SNB-75 CNS, 8.38 µM and 2.47 µM; in the assay with MALME-3M melanoma it was 1.31 µM and 2.77 µM; in the assay with A549 NSCLC, 8.31 µM and 10.1 µM; in the assay on HT29 colon, 1.75 µM and 2.45 µM; in the assay with ACHN renal it was 4.47 µM and 10.7 µM. In addition, the GI50 in the assay on LOX IMVI melanoma is 1.35 µM and 2.36 µM; with HOP-92 NSCLC, 3.81 µM and 1.09 µM; with COLO 205 colon, 1.64 µM and 2.05 µM; in the assay with SR leukemia, 0.571 µM and 1.36 µM. The TGI is 21.2 µM and > 43.4 µM in the assay on EKVX NSCLC; 26.1 µM and 27.7 µM in the assay with SNB-75 CNS; 2.95 µM and 15.3 µM in the assay on MALME-3M melanoma; 23.3 µM in the assay on A549 NSCLC; 5.95 µM with HT29 colon; 19.5 µM and > 38 µM with ACHN renal. In addition, the TGI was 2.88 µM and 7.5 µM in the assay with LOX IMVI melanoma; 25.1 µM and > 25.9 µM with HOP-92 NSCLC; 3.7 µM and 9.53 µM in the assay with COLO 205 colon; 3.68 µM and 5.19 µM with SR leukemia.

Turning to `C=C1C(=O)O[C@@H]2C[C@@H](C)[C@@H]3[C@@H](OC4OC(COC(C)=O)C(O)C(O)C4O)CC(=O)[C@@]3(C)C[C@H]12` (stereo partly drawn), the TGI amounted to 7.6 µM in the assay on EKVX NSCLC; 15.3 µM with SNB-75 CNS; 0.849 µM in the assay with MALME-3M melanoma; 22.3 µM in the assay with A549 NSCLC; 2.93 µM in the assay on HT29 colon; 0.987 µM in the assay on ACHN renal. Also, the TGI in the assay on LOX IMVI melanoma amounted to 1.78 µM; in the assay with HOP-92 NSCLC it was 2.15 µM; with COLO 205 colon, 1.88 µM; with SR leukemia, 7.53 µM.

`O=C(Nc1nccs1)c1cc(C2=CC=CC([N+](=O)[O-])C=C2)nc(=S)[nH]1` (stereo not drawn): the TGI with EKVX NSCLC, in the assay with SNB-75 CNS, in the assay on MALME-3M melanoma, in the assay with A549 NSCLC, with HT29 colon and in the assay with ACHN renal was over 100 µM throughout. In addition, the TGI in the assay with LOX IMVI melanoma, in the assay with HOP-92 NSCLC, with COLO 205 colon and in the assay on SR leukemia was over 100 µM each time.

On to `Cc1cc2c(C(N)=O)cccc2n1-c1nc2c(c(NCc3ccccc3)n1)CCCN2`, for which the GI50 is 0.256 µM in the assay on EKVX NSCLC; 0.153 µM in the assay with SNB-75 CNS; 0.178 µM in the assay on MALME-3M melanoma; 0.22 µM in the assay with A549 NSCLC; 0.215 µM with HT29 colon; 0.236 µM with ACHN renal. Also, the GI50 in the assay with LOX IMVI melanoma is 0.0517 µM; in the assay on HOP-92 NSCLC, 0.261 µM; in the assay with COLO 205 colon, 0.195 µM; with SR leukemia, 0.117 µM. For the same compound, the TGI with EKVX NSCLC turned out to be 0.63 µM; with SNB-75 CNS, 0.342 µM; with MALME-3M melanoma it was 0.346 µM; in the assay with A549 NSCLC, 0.543 µM; in the assay with HT29 colon it was 0.485 µM; in the assay on ACHN renal, 0.791 µM. For the same compound, the TGI was found to be 0.206 µM in the assay with LOX IMVI melanoma, 0.541 µM in the assay with HOP-92 NSCLC, 0.364 µM in the assay with COLO 205 colon and 0.525 µM in the assay on SR leukemia.

With `COc1cc2c(cc1OC)[C@@H](C(O)c1ccccc1)NCC2` (stereo partly drawn), the TGI in the assay on EKVX NSCLC, in the assay with SNB-75 CNS, in the assay on MALME-3M melanoma, in the assay on A549 NSCLC, in the assay on HT29 colon and in the assay with ACHN renal was over 100 µM each time. For the same compound, the TGI in the assay on LOX IMVI melanoma, with HOP-92 NSCLC, in the assay on COLO 205 colon and in the assay on SR leukemia was over 100 µM each time.

On to `Clc1cc(Cl)cc(N2N=C(c3cccc(Nc4ccncc4)c3)CC2c2ccc(Br)cc2)c1` (stereo not drawn), for which the GI50 is 1.6 µM in the assay with EKVX NSCLC; 1.42 µM with SNB-75 CNS; 1.71 µM with MALME-3M melanoma; 1.87 µM with HT29 colon; 1.66 µM in the assay on ACHN renal; 1.7 µM with LOX IMVI melanoma. The GI50 with HOP-92 NSCLC is 1.48 µM; in the assay with COLO 205 colon it was 1.82 µM; in the assay on SR leukemia it was 1.48 µM. In addition, the TGI with EKVX NSCLC came to 3.2 µM; with SNB-75 CNS it was 2.98 µM; in the assay with MALME-3M melanoma it was 3.5 µM; with HT29 colon, 3.66 µM; in the assay with ACHN renal it was 3.02 µM; with LOX IMVI melanoma, 3.06 µM. In addition, the TGI in the assay on HOP-92 NSCLC is 2.94 µM; in the assay on COLO 205 colon it was 3.86 µM; in the assay on SR leukemia, 3.68 µM.

Consider `CCc1oc2ccccc2c1C(=O)c1cc(Br)c(O)c(Br)c1`, for which the TGI in the assay on EKVX NSCLC was 95.2 µM; with SNB-75 CNS, 48.6 µM; with MALME-3M melanoma it was 43.2 µM; in the assay with A549 NSCLC it was over 100 µM; with HT29 colon, 74.7 µM; in the assay with ACHN renal, 31.3 µM. For the same compound, the TGI with LOX IMVI melanoma was found to be 55.3 µM; in the assay on HOP-92 NSCLC, 64.2 µM; in the assay with COLO 205 colon, 40.6 µM; in the assay on SR leukemia, 55.4 µM.

On to `O=C(N/N=C/c1ccc(O)cc1O)c1ccc(Nc2ccnc(C(F)(F)F)c2)cc1`, for which the GI50 in the assay with EKVX NSCLC was 8.91 µM; in the assay with SNB-75 CNS, 3.72 µM; in the assay on MALME-3M melanoma, 0.661 µM; with A549 NSCLC it was over 100 µM; in the assay on HT29 colon it was over 100 µM; in the assay with ACHN renal, 31.8 µM. Moreover, the GI50 in the assay on LOX IMVI melanoma was 8.31 µM; in the assay on HOP-92 NSCLC, 15 µM; in the assay on COLO 205 colon, 7.61 µM; in the assay with SR leukemia it was over 100 µM. In addition, the TGI with EKVX NSCLC is over 75.1 µM; in the assay with SNB-75 CNS, 26.7 µM; with MALME-3M melanoma, over 45.6 µM; with A549 NSCLC, over 100 µM; with HT29 colon, over 100 µM; in the assay on ACHN renal, over 100 µM. The TGI in the assay with LOX IMVI melanoma is over 100 µM; in the assay on HOP-92 NSCLC, over 75.6 µM; with COLO 205 colon it was over 100 µM; in the assay with SR leukemia, over 100 µM.

For the compound `O=Cc1[nH]c2ccccc2c1Br`, the TGI in the assay on EKVX NSCLC is over 100 µM; with SNB-75 CNS it was 52.6 µM; in the assay on MALME-3M melanoma it was 45.1 µM; in the assay on A549 NSCLC, over 100 µM; with HT29 colon it was 58.6 µM; in the assay on ACHN renal it was 82.7 µM. Moreover, the TGI in the assay on LOX IMVI melanoma was found to be 75.7 µM; in the assay on HOP-92 NSCLC, 66.8 µM; in the assay on COLO 205 colon, 34.7 µM; with SR leukemia it was 61.1 µM.

For `O=C(Nc1ccc2oc(=O)c(C(=O)O)cc2c1)Oc1ccccc1`, the TGI in the assay with EKVX NSCLC, in the assay with SNB-75 CNS, with MALME-3M melanoma, in the assay with A549 NSCLC, in the assay on HT29 colon and with ACHN renal was over 100 µM throughout. Besides, the TGI in the assay with LOX IMVI melanoma, in the assay with HOP-92 NSCLC, in the assay on COLO 205 colon and in the assay with SR leukemia was over 100 µM each time.
